One assay concerns aged MuSCs. Briefly: Clonal aged MuSC proliferation and death by time-lapse microscopy in hydrogel microwells. The assay is classed as cell-based, mouse. The source says:
We assayed clonal muscle stem cell proliferation by time-lapse microscopy as previously described^5,6. Briefly, we treated isolated aged MuSCs with PGE2 (Cayman Chemical) or vehicle (DMSO) for 24 hr. After five days of growth on hydrogels, cells were reseeded at a density of 500 cells per cm^2 surface area in hydrogel microwells with 600 μm diameter. For time-lapse microscopy we monitored cell proliferation for those wells with single cells beginning 12 hr (day 0) to two days after seeding and recorded images every 3 min at 10× magnification using a PALM/AxioObserver Z1 system (Carl Zeiss MicroImaging) with a custom environmental control chamber and motorized stage. We changed medium every other day in between the acquisition time intervals. We analyzed time-lapse image sequences using the Baxter Algorithms for Cell Tracking and Lineage Reconstruction to identify and track single cells and generate lineage trees^5,6,8-10.
Viable and dead cells were distinguished in time-lapse sequences based on phase-contrast boundary and motility maintenance or loss, respectively. […] The values were estimated using the equations described in^6, and found in Table 1. We denote the proliferation rates in the two intervals p24 and p48 and the corresponding death rates d24 and d48. […] The modeled cell counts in the two time intervals are given by […]

For another assay, the system named is gastrocnemius muscles. Briefly: Specific twitch force after treadmill run to exhaustion, aged mice (Example 2). The assay is classed as in vivo, mouse. As to conditions: aged mice 18 months, 3 nM PGE2 after each of 10 daily runs, 4 weeks after last run. The protocol: The aged mice (18 months old) were subject to treadmill run to exhaustion daily for 10 days. The treadmill run was performed using the Exer3/6 (Columbus Instruments). Mice ran on the treadmill at 20 degrees downhill, starting at a speed of 10 meters/min. After 3 min, the speed was increased 1 meter/min to a final speed of 20 meters/min. Exhaustion was defined as the inability of the animal to remain on the treadmill despite electrical prodding. 2 h after each treadmill run, both gastrocnemius muscles of each mouse were injected with either PBS (control group) or 3 nM PGE2 (experimental group). The force measurement was performed 4 weeks after the last treadmill run using a […]-LR force transducer (Aurora Scientific) with a single 0.1 ms pulse at predetermined supramaximal stimulation intensity. The muscle force and synchronization pulses were recorded via a PCI-6251 acquisition card (National Instruments) and analyzed using Matlab. FIGS. 4O-4P show the specific muscle force values that were calculated by normalizing the force measurements with the muscle physiological cross-sectional area. […] Five repetitive measurements were made from each muscle. N=4 for the control group and n=5 for the PGE2 injected group. ** represents a statistical significant value of p<0.005 by 2-tailed Mann Whitney test.

A further assay deals with MuSCs. Briefly: MuSC proliferation in charcoal stripped serum medium. Format: cell-based, mouse. As to conditions: PGE2 10 ng/ml every two days, 7 days. The protocol: Following isolation, we resuspended MuSCs in myogenic cell culture medium containing DMEM/F10 (50:50), 15% FBS, 2.5 ng ml^−1 fibroblast growth factor-2 (FGF-2 also known as bFGF) and 1% penicillin-streptomycin. We seeded MuSC suspensions at a density of 500 cells per cm^2 surface area. We maintained cell cultures at 37° C. in 5% CO2 and changed medium daily. […]
To assay proliferation, we used three different assays (hemocytometer, VisionBlue, and EdU). […] For hemocytometer cell number count, we collected cells at indicated timepoints by incubation with 0.5% trypsin in PBS for 5 min at 37° C. and quantified them using a hemocytometer at least 3 times. Additionally, we used the VisionBlue Quick Cell Viability Fluorometric Assay Kit (BioVision, catalog #K303) as a readout for cell growth in culture. Briefly, we incubated MuSCs with 10% VisionBlue in culture medium for 3 h, and measured fluorescence intensity on a fluorescence plate reader (Infinite M1000 PRO, Tecan) at Ex=530-570 nm, Em=590-620 nm. […] We quantified EdU positive cells using the MetaMorph Image Analysis software (Molecular Devices). Data analyses were blinded, where researchers performing cell scoring were unaware of the treatment condition given to sample groups analyzed.

The mark [1] stands for this setting: aged MuSCs, 1 day PGE2, 48 h tracking.
Setting [2] is: first 24 hour interval, aged MuSC clones.
[3] abbreviates: second 24 hour interval, aged MuSC clones.

SMILES strings stand for the structures.

For `CCCCC[C@H](O)/C=C/[C@H]1[C@H](O)CC(=O)[C@@H]1C/C=C\CCCC(=O)O` [PGE2, prostaglandin E2], in the assay with aged MuSCs (aged MuSC clones, acute PGE2), the “percent increase in dead cell count” value worked out at 0.1%. The “percent increase in live cell count” value in the assay on aged MuSCs (aged MuSC clones, acute PGE2, n=45 clones) was determined as 5.4%. Also, in the assay on aged MuSCs (setting [1]), the cell death entry is “profound reduction” and the “cumulative cell numbers per clone” value is recorded as “remarkable increase”. Also, in the assay with aged MuSCs (setting [2]), the “Estimated death rate d24” value is recorded as 0.0067 per hours and the “Estimated proliferation rate p24” value is on record as 0.0475 per hours. For the same molecule, in the assay with aged MuSCs (setting [3]), the “Estimated death rate d48” value is reported as 0.0012 per hours and the “Estimated proliferation rate p48” value is given as 0.0538 per hours. The “specific twitch force of gastrocnemius muscles” value in the assay with gastrocnemius muscles is given as “increase”. Besides, the “proliferation of aged MuSCs in charcoal stripped serum medium” value in the assay on MuSCs (aged MuSCs) is “rescued”. In addition, the “division of growth arrested MuSCs in charcoal stripped serum medium” value in the assay with MuSCs (young MuSCs) is recorded as “divided”.

Source of the values: US11969433B2, “Compositions and methods for muscle regeneration using prostaglandin E2” (The Board of Trustees of the Leland Stanford Junior …, priority 2016, dated 2024).
